Data as given in PubChem BioAssay (NCI).
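A five-concentration, 48-hour dose response in 96-well plates underlies each endpoint, interpolated linearly between surrounding concentrations. TGI denotes the concentration required for complete inhibition of growth.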

What was measured:
Test in all cases: DTP human tumour cell line panel, 48 h
[1] = system: KM20L2 colon
[2] = system: XF 498 CNS
[3] = system: DMS 114 small cell lung
[4] = system: M19-MEL melanoma
[5] = system: SNB-78 CNS

Row | Structure (SMILES) | TGI [1] [µM] | TGI [2] [µM] | TGI [3] [µM] | TGI [4] [µM] | TGI [5] [µM]
1 | O=C(Nc1ccc(Cl)cc1)c1cccc([N+](=O)[O-])c1O | 98.5 | 8.31 | 14.8 | 9.07 | > 37.5
2 | C\C=C/C=C/C=C/C(=O)O | > 100 |  | > 100 |  | > 100
